In PubChem BioAssay AID256 (DTP/NCI, 2004):
Where “and” joins values, the source holds several entries; their conditions need not be identical. Identical values can stand only once. Inconclusive results and toxic doses are left out. How the source made its calls: active means survival T/C of 150% or more; inactive means T/C below 125% in these data.

Test system: CD2F1 mice, L1210 leukemia ip, survival T/C
Experiment: NCI In Vivo Anticancer Drug Screen. Data for tumor model L1210 Leukemia (intraperitoneal) in CD2F1 (CDF1) mice
Settings: endpoint: mean survival time, higher = longer survival
Outline: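 Activity against a transplanted murine tumor was judged by comparing the compound group with a vehicle group. The outcome in the treated animals was divided by that in the controls.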

[1] = dose: 100.0 mg/kg/injection, schedule: Q01DX009 (ip), vehicle: saline with Tween-80
[2] = dose: 100.0 mg/kg/injection, schedule: Q04DX003 (ip), vehicle: saline with Tween-80
[3] = dose: 200.0 mg/kg/injection, schedule: Q01DX009 (ip), vehicle: saline with Tween-80
[4] = dose: 200.0 mg/kg/injection, schedule: Q04DX003 (ip), vehicle: saline with Tween-80
[5] = dose: 400.0 mg/kg/injection, schedule: Q01DX009 (ip), vehicle: saline with Tween-80
[6] = dose: 400.0 mg/kg/injection, schedule: Q04DX003 (ip), vehicle: saline with Tween-80
[7] = dose: 50.0 mg/kg/injection, schedule: Q01DX009 (ip), vehicle: saline with Tween-80
[8] = dose: 100.0 mg/kg/injection, schedule: Q04DX003 (ip), vehicle: saline
[9] = dose: 200.0 mg/kg/injection, schedule: Q04DX003 (ip), vehicle: saline
[10] = dose: 6.25 mg/kg/injection, schedule: Q04DX003 (ip), vehicle: saline with Tween-80
[11] = dose: 12.5 mg/kg/injection, schedule: Q04DX003 (ip), vehicle: saline with Tween-80
[12] = dose: 50.0 mg/kg/injection, schedule: Q04DX003 (ip), vehicle: saline with Tween-80
[13] = dose: 50.0 mg/kg/injection, schedule: Q04DX002 (ip), vehicle: saline with Tween-80
[14] = dose: 100.0 mg/kg/injection, schedule: Q01DX001 (ip), vehicle: saline
[15] = dose: 200.0 mg/kg/injection, schedule: Q01DX001 (ip), vehicle: saline
[16] = dose: 400.0 mg/kg/injection, schedule: Q01DX001 (ip), vehicle: saline

Measured: T/C

S=c1ssc(-c2ccccc2)c1-c1ccccc1
inactive: [1] 97 % of control | [2] 87 % of control | [3] 100 % of control | [4] 92 % of control | [5] 106 % of control | [6] 93 % of control

CCCc1nc(N)nc(N)n1
inactive: [7] 104 % of control | [1] 104 % of control | [3] 116 % of control

Cc1cc(C)c2c(C#N)cn(-c3cccc(Cl)c3)c2n1
inactive: [8] 97 % of control

Cc1cc(C)c(C(=O)CC(O)(C(F)(F)F)C(F)(F)F)c(C)c1
inactive: [2] 115 % of control | [4] 107 % of control | [6] 107 % of control

Nc1ccc(-c2c(N)nc(Br)c3ccccc23)cc1
inactive: dose: 50.0 mg/kg/injection, schedule: Q04DX003 (ip), vehicle: DMSO 98 % of control | dose: 100.0 mg/kg/injection, schedule: Q04DX003 (ip), vehicle: DMSO 93 % of control | dose: 200.0 mg/kg/injection, schedule: Q04DX003 (ip), vehicle: DMSO 110 % of control | dose: 400.0 mg/kg/injection, schedule: Q04DX003 (ip), vehicle: DMSO 104 % of control

CC(C)(CNC1=NCCO1)NC1=NCCO1
inactive: [8] 104 % of control | [9] 104 % of control

Cc1c(C)c(C)c2c(c1C)CCC2O (stereo unspecified)
inactive: dose: 12.5 mg/kg/injection, schedule: Q01DX009 (ip), vehicle: saline with Tween-80 102 % of control and 105 % of control | dose: 25.0 mg/kg/injection, schedule: Q01DX009 (ip), vehicle: saline with Tween-80 97 % of control and 94 % of control | [7] 100 % of control [middle of 4 runs]

CCOP(=O)(OCC)C1=C(P(=O)(OCC)OCC)C(F)(F)C(F)(F)C1(F)F
inactive: dose: 75.0 mg/kg/injection, schedule: Q01DX001 (ip), vehicle: other 107 % of control

COc1ccc(-n2c(=O)c(N=Nc3ccccc3)c(O)n(-c3ccc(C)cc3)c2=S)cc1
inactive: dose: 100.0 mg/kg/injection, schedule: Q01DX001 (ip), vehicle: acetone 96 % of control | dose: 200.0 mg/kg/injection, schedule: Q01DX001 (ip), vehicle: acetone 94 % of control | dose: 400.0 mg/kg/injection, schedule: Q01DX001 (ip), vehicle: acetone 96 % of control

CC(C)(C)C1CCS(=O)(=O)CC1.[Cl][Hg][Cl]
inactive: dose: 0.25 mg/kg/injection, schedule: Q04DX003 (ip), vehicle: saline 104 % of control | dose: 0.5 mg/kg/injection, schedule: Q04DX003 (ip), vehicle: saline 94 % of control | dose: 1.0 mg/kg/injection, schedule: Q04DX003 (ip), vehicle: saline 100 % of control

CC(Br)C(Br)CO (stereo unspecified)
inactive: [8] 104 % of control | [9] 96 % of control | dose: 400.0 mg/kg/injection, schedule: Q04DX003 (ip), vehicle: saline 106 % of control

CCCCCCCCCCCCCCCCOC(=O)c1cc([N+](=O)[O-])cc([N+](=O)[O-])c1Sc1ncnc2nc[nH]c12
inactive: dose: 0.63 mg/kg/injection, schedule: Q01DX005 (ip), vehicle: other 105 % of control | dose: 1.25 mg/kg/injection, schedule: Q01DX005 (ip), vehicle: other 108 % of control | dose: 2.5 mg/kg/injection, schedule: Q01DX005 (ip), vehicle: other 113 % of control | dose: 5.0 mg/kg/injection, schedule: Q01DX005 (ip), vehicle: other 113 % of control | dose: 10.0 mg/kg/injection, schedule: Q01DX005 (ip), vehicle: other 120 % of control | dose: 12.5 mg/kg/injection, schedule: Q01DX005 (ip), vehicle: other 109 % of control | dose: 15.7 mg/kg/injection, schedule: Q01DX005 (ip), vehicle: other 106 % of control | dose: 25.0 mg/kg/injection, schedule: Q01DX005 (ip), vehicle: other 117 % of control and 112 % of control | dose: 31.3 mg/kg/injection, schedule: Q01DX005 (ip), vehicle: other 124 % of control | dose: 50.0 mg/kg/injection, schedule: Q01DX005 (ip), vehicle: other 115 % of control and 122 % of control | dose: 100.0 mg/kg/injection, schedule: Q01DX005 (ip), vehicle: other 116 % of control | dose: 400.0 mg/kg/injection, schedule: Q01DX005 (ip), vehicle: other 118 % of control

CC1(C)C=CC(=O)c2ccccc21
inactive: [2] 94 % of control | [4] 100 % of control | [6] 101 % of control

O=[As](O)(CC(O)COc1ccc(Cl)cc1Cl)c1cccc(Cl)c1 (stereo unspecified)
inactive: [10] 98 % of control | [11] 110 % of control

CC(=O)c1cc2ccccc2o1
inactive: [10] 96 % of control | [11] 96 % of control | dose: 25.0 mg/kg/injection, schedule: Q04DX003 (ip), vehicle: saline with Tween-80 101 % of control | [12] 95 % of control

CC(=O)OC1CCC2(C)C3CCC4(C)C(OC(=O)c5ccccc5)CCC4C3C3C(=O)OC32C1 (stereo unspecified)
inactive: dose: 100.0 mg/kg/injection, schedule: Q01DX001 (ip), vehicle: saline with Tween-80 91 % of control | dose: 200.0 mg/kg/injection, schedule: Q01DX001 (ip), vehicle: saline with Tween-80 90 % of control and 96 % of control | dose: 400.0 mg/kg/injection, schedule: Q01DX001 (ip), vehicle: saline with Tween-80 88 % of control

Nc1ccc(CCc2ccccc2)cc1
inactive: [13] 98 % of control and 105 % of control | [12] 104 % of control | [2] 100 % of control and 101 % of control and 107 % of control | [4] 92 % of control and 104 % of control

CC1(C2CC(=O)OC2=O)OCCO1 (stereo unspecified)
inactive: dose: 50.0 mg/kg/injection, schedule: Q01DX001 (ip), vehicle: saline 96 % of control | [14] 102 % of control | [15] 93 % of control

O=c1[nH]c2ccccc2c2c3ccccc3nn12
inactive: dose: 25.0 mg/kg/injection, schedule: Q04DX002 (ip), vehicle: saline with Tween-80 113 % of control | [13] 103 % of control | dose: 100.0 mg/kg/injection, schedule: Q04DX002 (ip), vehicle: saline with Tween-80 96 % of control and 100 % of control | dose: 200.0 mg/kg/injection, schedule: Q04DX002 (ip), vehicle: saline with Tween-80 100 % of control and 106 % of control | dose: 400.0 mg/kg/injection, schedule: Q04DX002 (ip), vehicle: saline with Tween-80 103 % of control

CC(=O)OC1C=CS(=O)(=O)C1 (stereo unspecified)
inactive: [2] 108 % of control | [4] 103 % of control | [6] 105 % of control

O=[N+]([O-])c1cccc(S(=O)(=O)Nc2ccccc2Cl)c1
inactive: [1] 97 % of control | [2] 96 % of control | [3] 92 % of control | [4] 96 % of control | [5] 95 % of control | [6] 95 % of control

CC(C)NC(=O)NC(C)C
inactive: [14] 107 % of control | [15] 102 % of control | [16] 100 % of control

CC(C)(C)OC(=O)NCCCCC(NC(=O)OC(C)(C)C)C(=O)O (stereo unspecified)
inactive: [14] 100 % of control | [15] 110 % of control | [16] 97 % of control

c1ccc2c(c1)ccc1c3ccccc3[nH]c21
inactive: dose: 100.0 mg/kg/injection, schedule: Q01DX009 (ip), vehicle: other 94 % of control | dose: 200.0 mg/kg/injection, schedule: Q01DX009 (ip), vehicle: other 97 % of control | dose: 400.0 mg/kg/injection, schedule: Q01DX009 (ip), vehicle: other 96 % of control
